Experimental data as given in article PMC11966747, “Next Generation Risk Assessment of Acute Neurotoxicity from Organophosphate Exposures Using the In Vitro–In Silico Derived Dietary Comparator Ratio” (Environmental Science & Technology, 2025).
Read-outs that look alike come from different tables or passages of the source.

Experiments:
[1] = molecular target: T1, erythrocyte AChE (Homo sapiens, UniProt P22303); details: human, ref Table S2, cited from earlier work
[2] = molecular target: T1, erythrocyte AChE; test: Exposure Activity Ratio (EAR) and Dietary Comparator Ratio (DCR) calculation; parameters: from tissue; host or cells: human whole peripheral blood (erythrocytes), K2EDTA anticoagulant; details: human

T1 sequence (P22303 32-617 isoform P22303-2 limits assumed): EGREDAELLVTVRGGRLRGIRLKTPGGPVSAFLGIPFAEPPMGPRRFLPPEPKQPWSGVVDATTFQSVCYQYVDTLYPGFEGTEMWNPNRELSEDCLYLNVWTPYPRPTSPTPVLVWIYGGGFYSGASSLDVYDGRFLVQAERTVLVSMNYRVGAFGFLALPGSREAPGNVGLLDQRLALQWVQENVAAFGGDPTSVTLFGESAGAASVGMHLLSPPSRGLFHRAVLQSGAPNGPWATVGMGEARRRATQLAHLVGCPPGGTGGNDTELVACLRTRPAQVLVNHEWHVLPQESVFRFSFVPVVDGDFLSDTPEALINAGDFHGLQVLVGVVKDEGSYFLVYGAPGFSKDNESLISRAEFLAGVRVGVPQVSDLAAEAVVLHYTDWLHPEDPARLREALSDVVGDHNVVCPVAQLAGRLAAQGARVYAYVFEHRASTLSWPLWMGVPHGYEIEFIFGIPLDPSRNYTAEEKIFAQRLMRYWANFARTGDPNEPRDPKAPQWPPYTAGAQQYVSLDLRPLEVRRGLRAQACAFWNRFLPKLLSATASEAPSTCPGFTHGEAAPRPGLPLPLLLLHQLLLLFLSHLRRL

COP(=S)(OC)Oc1ccc([N+](=O)[O-])c(C)c1 [fenitrothion]
reported or expected adverse health outcome ([1]; single oral 143 mg/kg BW, 143 mg/kg): positive
reported or expected adverse health outcome ([1]; single oral 143 mg/kg BW, listed as Fenitrothion, 143 mg/kg): Yes
reported or expected adverse health outcome ([1]; single oral 214 mg/kg BW, 214 mg/kg): positive
reported or expected adverse health outcome ([1]; single oral 214 mg/kg BW, listed as Fenitrothion, 214 mg/kg): Yes
reported or expected adverse health outcome ([1]; single oral 357 mg/kg BW, 357 mg/kg): positive
reported or expected adverse health outcome ([1]; single oral 357 mg/kg BW, listed as Fenitrothion, 357 mg/kg): Yes
reported or expected adverse health outcome ([1]; single oral 429 mg/kg BW, 429 mg/kg): positive
reported or expected adverse health outcome ([1]; single oral 429 mg/kg BW, listed as Fenitrothion, 429 mg/kg): Yes
reported or expected adverse health outcome ([1]; single oral 500 mg/kg BW, 500 mg/kg): positive
reported or expected adverse health outcome ([1]; single oral 500 mg/kg BW, listed as Fenitrothion, 500 mg/kg): Yes
reported or expected adverse health outcome ([1]; single oral 536 mg/kg BW, 536 mg/kg): positive
reported or expected adverse health outcome ([1]; single oral 536 mg/kg BW, listed as Fenitrothion, 536 mg/kg): Yes
reported or expected adverse health outcome ([1]; single oral 571 mg/kg BW, 571 mg/kg): positive
reported or expected adverse health outcome ([1]; single oral 571 mg/kg BW, listed as Fenitrothion, 571 mg/kg): Yes
reported or expected adverse health outcome ([1]; single oral 1714 mg/kg BW, 1714 mg/kg): positive
reported or expected adverse health outcome ([1]; single oral 1714 mg/kg BW, listed as Fenitrothion, 1714 mg/kg): Yes
reported or expected adverse health outcome ([1]; single oral 1786 mg/kg BW, 1786 mg/kg): positive
reported or expected adverse health outcome ([1]; single oral 1786 mg/kg BW, listed as Fenitrothion, 1786 mg/kg): Yes
calculated DCR value ([2]; single oral 0.042 mg/kg BW): 0.17
calculated EARtest value ([2]; single oral 0.042 mg/kg BW): 6.8 × 10^–3
calculated DCR value ([2]; single oral 0.06 mg/kg BW): 0.25
calculated EARtest value ([2]; single oral 0.06 mg/kg BW): 9.7 × 10^–3
calculated DCR value ([2]; single oral 0.083 mg/kg BW): 0.34
calculated EARtest value ([2]; single oral 0.083 mg/kg BW): 0.013
calculated DCR value ([2]; single oral 0.09 mg/kg BW): 0.37
calculated EARtest value ([2]; single oral 0.09 mg/kg BW): 0.015
calculated DCR value ([2]; single oral 0.17 mg/kg BW): 0.70
calculated EARtest value ([2]; single oral 0.17 mg/kg BW): 0.028
calculated DCR value ([2]; single oral 0.18 mg/kg BW): 0.74
calculated EARtest value ([2]; single oral 0.18 mg/kg BW): 0.029
calculated DCR value ([2]; single oral 0.25 mg/kg BW): 1.0
calculated EARtest value ([2]; single oral 0.25 mg/kg BW): 0.041
calculated DCR value ([2]; single oral 0.33 mg/kg BW): 1.4
calculated EARtest value ([2]; single oral 0.33 mg/kg BW): 0.054
calculated DCR value ([2]; single oral 0.36 mg/kg BW): 1.5
calculated EARtest value ([2]; single oral 0.36 mg/kg BW): 0.059
calculated DCR value ([2]; single oral 36 mg/kg BW): 174
calculated EARtest value ([2]; single oral 36 mg/kg BW): 6.89
calculated DCR value ([2]; single oral 71 mg/kg BW): 346
calculated EARtest value ([2]; single oral 71 mg/kg BW): 13.66
calculated DCR value ([2]; single oral 143 mg/kg BW): 610
calculated EARtest value ([2]; single oral 143 mg/kg BW): 24.10
calculated DCR value ([2]; single oral 214 mg/kg BW): 811
calculated EARtest value ([2]; single oral 214 mg/kg BW): 32.03
calculated DCR value ([2]; single oral 357 mg/kg BW): 1189
calculated EARtest value ([2]; single oral 357 mg/kg BW): 46.93
calculated DCR value ([2]; single oral 429 mg/kg BW): 1364
calculated EARtest value ([2]; single oral 429 mg/kg BW): 53.86
calculated DCR value ([2]; single oral 500 mg/kg BW): 1526
calculated EARtest value ([2]; single oral 500 mg/kg BW): 60.24
calculated DCR value ([2]; single oral 536 mg/kg BW): 1604
calculated EARtest value ([2]; single oral 536 mg/kg BW): 63.31
calculated DCR value ([2]; single oral 571 mg/kg BW): 1677
calculated EARtest value ([2]; single oral 571 mg/kg BW): 66.18
calculated DCR value ([2]; single oral 1714 mg/kg BW): 3037
calculated EARtest value ([2]; single oral 1714 mg/kg BW): 119.90
calculated DCR value ([2]; single oral 1786 mg/kg BW): 3078
calculated EARtest value ([2]; single oral 1786 mg/kg BW): 121.49
